The text below walks through data of patent publication US9326506B2, “Preparation method, agricultural composition and applications of natural brassinolide analogs” (CHENGDU NEWSUN CROPSCIENCE CO., LTD, priority 2012, dated 2016).

The subject of the experiment is soybean. Put plainly: Farmland test on soybean (germination, height, fresh weight, dry weight). Type of experiment: in vivo. As to conditions: relative to the negative control (pure water). The protocol:
BR1, BR2, BR3, BR4, BR5 and BR6 were mixed into a mixture of brassinolide analogues (referred to as “BRs”, in which the weight ratio of BR1:BR2:BR3:BR4:BR5:BR6 is 0.4:0.4:0.4:0.4:0.4:98). pure water was used as a negative control, while chemically synthesized homobrassinolide (purchased from Yunda Technology Co., Ltd.) was used as a positive control. Respectively BRs and the positive control were diluted to the concentrations of 1 ppm, 0.5 ppm, 0.1 ppm, 0.05 ppm, 0.01 ppm, 0.005 ppm, 0.001 ppm, 0.0005 ppm and 0.0001 ppm. The subjects for the experimentation are soybean seeds in an experimental farmland. We sowed the soybean seeds on 9th July, surveyed the germination on 22nd July, 23rd July and 24th July, and measured the height on 5th September […].

For the molecule `CC[C@@H](C(C)C)[C@H](O)[C@@H](O)[C@@H](C)[C@H]1CC[C@H]2[C@@H]3COC(=O)[C@H]4C[C@H](O)[C@H](O)C[C@]4(C)[C@H]3CC[C@]12C` [homobrassinolide], the “Effects on germination, height, fresh weight and dry weight of soybean” value was “positive and different effects”.
